Results published in US11840528B2 (Hoffmann-La Roche Inc., priority 2018, dated 2023).

Experiments:
h-GABA-A α5β3γ2 [1] = molecular target: T1, h-GABA-A α5β3γ2 (Homo sapiens, UniProt P18507+P31644); assay: [3H]flumazenil competition binding assay, membranes of HEK293 cells expressing GABAA receptors; settings: displacement of [3H]-Flumazenil 0.5 nM, HEK293 cells expressing human receptors, mean of two determinations; Table 1
In short: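 Receptor source: human α5β3γ2 transiently transfected into HEK293 cells, membranes in pH 7.5 Krebs-tris. Filtration through GF/C, then scintillation counting.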

h-GABA-A α5β3γ2 [2] = molecular target: T1, h-GABA-A α5β3γ2; assay: Two-electrode voltage clamp electrophysiology in Xenopus laevis oocytes expressing GABAA receptors, modulation of GABA EC20 current; format: cell-based; design: host or cells: Xenopus laevis oocytes micro-injected with RNA transcripts of the subunits; settings: Table 1; for Efficacy (GABA) %: % modulation of GABA EC20 = 100*(Fold increase-1); for Fold increase h-GABA-A α5β3γ2 oocyte: test compound at approx. 30 fold its Ki, GABA at EC20
In short: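 Modulation is reported as % of the GABA EC20 current, calculated as 100*(Fold increase−1) from the peak ratio between a second GABA response carrying compound (applied at roughly 30-fold Ki) and a preceding control response. Oocytes expressing human α5β3γ2 were clamped at −80 mV at room temperature, 3–5 days after injection.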

Structure (SMILES)	Ki (h-GABA-A α5β3γ2 [1]) [nM]	Efficacy (GABA) % (h-GABA-A α5β3γ2 [2]) [%]	Fold increase h-GABA-A α5β3γ2 oocyte (h-GABA-A α5β3γ2 [2])
Cc1ccc(-c2noc(C)c2Cn2ncc(-c3cncc(Cl)c3)cc2=O)cn1 [Example 148, 5-(5-chloro-3-pyridyl)-2-((5-methyl-3-(6-methyl-3-pyridyl)isoxazol-4-yl)methyl)pyridazin-3-one]	8.4	248	3.48
Cc1ccc(-c2noc(C)c2Cn2ncc(-c3cnn(C4CC4)c3)cc2=O)cn1 [Example 152, 5-(1-cyclopropyl-1H-pyrazol-4-yl)-2-((5-methyl-3-(6-methylpyridin-3-yl)isoxazol-4-yl)methyl)pyridazin-3(2H)-one]	28.7	116	2.16
Cc1ccc(-c2noc(C)c2Cn2ncc(N3CCN4C(=O)CCC4C3)cc2=O)cn1 (stereo not drawn) [Example 43, 2-(1-((5-methyl-3-(6-methylpyridin-3-yl)isoxazol-4-yl)methyl)-6-oxo-1,6-dihydropyridazin-4-yl)hexahydropyrrolo[1,2-a]pyrazin-6(2H)-one]	10	174	2.74
Cc1onc(-c2ccc(Cl)nc2)c1Cn1ncc(N2CCC3(CC2)CC(F)CCO3)cc1=O (single isomer, unassigned) [Example 330]	48.8	159	2.59
Cc1ccc(-c2noc(C)c2Cn2ncc(N3CC(OC(C)(C)C)C3)cc2=O)cn1 [Example 150, 5-(3-tert-butoxyazetidin-1-yl)-2-[[5-methyl-3-(6-methyl-3-pyridyl)isoxazol-4-yl]methyl]pyridazin-3-one]	30.4	85	1.85
Cc1ccc(-c2noc(C)c2Cn2ncc(N3CCC4(CC3)CC(F)CCO4)cc2=O)nn1 (single isomer, unassigned) [Example 327]	3.6	122	2.22
Cc1onc(-c2ccc(Cl)cn2)c1Cn1ncc(N2CCN(C(=O)C3(C)CC3)CC2)cc1=O [Example 16, 2-((3-(5-Chloropyridin-2-yl)-5-methylisoxazol-4-yl)methyl)-5-(4-(1-methylcyclopropanecarbonyl)piperazin-1-yl)pyridazin-3(2H)-one]	2.6	139	2.39
COc1cc(-c2cnn(Cc3c(-c4cnc(C)c(F)c4)noc3C)c(=O)c2)ccn1 [Example 207, 2-((3-(5-fluoro-6-methylpyridin-3-yl)-5-methylisoxazol-4-yl)methyl)-5-(2-methoxypyridin-4-yl)pyridazin-3(2H)-one]	14.8	75	1.75
CC(=O)N(C)[C@H]1CCN(c2cnn(Cc3c(-c4ccc(C)nc4)noc3C)c(=O)c2)C1 [Example 1, N-methyl-N-[(3S)-1-[1-[[5-methyl-3-(6-methyl-3-pyridyl)isoxazol-4-yl]methyl]-6-oxo-pyridazin-4-yl]pyrrolidin-3-yl]acetamide]	10.2	63	1.63
Cc1ccc(-c2noc(C)c2Cn2ncc(N3CC(OCC(F)F)C3)cc2=O)cn1 [Example 206, 5-[3-(2,2-difluoroethoxy)azetidin-1-yl]-2-[[5-methyl-3-(6-methyl-3-pyridyl)isoxazol-4-yl]methyl]pyridazin-3-one]	13.7	144	2.44

Continued by falling Ki (h-GABA-A α5β3γ2 [1]), values first:

Ki (h-GABA-A α5β3γ2 [1]) [nM]	Efficacy (GABA) % (h-GABA-A α5β3γ2 [2]) [%]	Fold increase h-GABA-A α5β3γ2 oocyte (h-GABA-A α5β3γ2 [2])	Structure (SMILES)
56.2	198	2.98	Cc1ccc(-c2noc(C)c2Cn2ncc(N3CC[C@H](C(=O)NC4CC4)C3)cc2=O)cn1 [Example 57, (3S)—N-cyclopropyl-1-[1-[[5-methyl-3-(6-methyl-3-pyridyl)isoxazol-4-yl]methyl]-6-oxo-pyridazin-4-yl]pyrrolidine-3-carboxamide]
52.7	94	1.94	Cc1onc(-c2ccc(Cl)nc2)c1Cn1ncc(N2CC3(CCCO3)C2)cc1=O [Example 209, 2-((3-(6-chloropyridin-3-yl)-5-methylisoxazol-4-yl)methyl)-5-(5-oxa-2-azaspiro[3.4]octan-2-yl)pyridazin-3(2H)-one]
36.6	108	2.08	Cc1onc(-c2ccc(Cl)nc2)c1Cn1ncc(N2CC3(CCOCC3)C2)cc1=O [Example 257, 2-((3-(6-chloropyridin-3-yl)-5-methylisoxazol-4-yl)methyl)-5-(7-oxa-2-azaspiro[3.5]nonan-2-yl)pyridazin-3(2H)-one]
33.4	247	3.47	Cc1ccc(-c2noc(C)c2Cn2ncc(N3CC[C@@H](C(=O)NC4CC4)C3)cc2=O)cn1 [Example 56, (3R)—N-cyclopropyl-1-[1-[[5-methyl-3-(6-methyl-3-pyridyl)isoxazol-4-yl]methyl]-6-oxo-pyridazin-4-yl]pyrrolidine-3-carboxamide]
18.7	106	2.06	Cc1onc(-c2ccc(Cl)nc2)c1Cn1ncc(N2CC(OCC(F)F)C2)cc1=O [Example 245, 2-((3-(6-chloropyridin-3-yl)-5-methylisoxazol-4-yl)methyl)-5-(3-(2,2-difluoroethoxy)azetidin-1-yl)pyridazin-3(2H)-one]
14.4	134	2.34	CCOC1CN(c2cnn(Cc3c(-c4ccc(C)nc4)noc3C)c(=O)c2)C1 [Example 99, 5-(3-ethoxyazetidin-1-yl)-2-[[5-methyl-3-(6-methyl-3-pyridyl)isoxazol-4-yl]methyl]pyridazin-3-one]
10.2	97	1.97	Cc1ccc(-c2noc(C)c2Cn2ncc(N3CCN(C4CC4)[C@@H](C)C3)cc2=O)cn1 [Example 60, 5-[(3S)-4-cyclopropyl-3-methyl-piperazin-1-yl]-2-[[5-methyl-3-(6-methyl-3-pyridyl)isoxazol-4-yl]methyl]pyridazin-3-one]
2.2	107	2.07	CCc1nccn1C1CCN(c2cnn(Cc3c(-c4ccc(C)nc4)noc3C)c(=O)c2)CC1 [Example 109, 5-[4-(2-ethylimidazol-1-yl)-1-piperidyl]-2-[[5-methyl-3-(6-methyl-3-pyridyl)isoxazol-4-yl]methyl]pyridazin-3-one]
2	149	2.49	Cc1ccc(-c2noc(C)c2Cn2ncc(N3CCC4(CCCCO4)CC3)cc2=O)nn1 [Example 302, 2-[[5-methyl-3-(6-methylpyridazin-3-yl)isoxazol-4-yl]methyl]-5-(1-oxa-9-azaspiro[5.5]undecan-9-yl)pyridazin-3-one]
0.5	216	3.16	Cc1ccc(-c2noc(C)c2Cn2ncc(N3C[C@@H](C)O[C@H](C)C3)cc2=O)cn1 (single isomer, unassigned) [Example 30, 5-[(2R,6R)-2,6-dimethylmorpholin-4-yl]-2-[[5-methyl-3-(6-methyl-3-pyridyl)isoxazol-4-yl]methyl]pyridazin-3-one or enantiomer]
